The record followed here is US20200113982A1, “Composition and Uses Thereof” (Arborvitae Health and Wellbeing Pty. Ltd., priority 2015, published 2020).

The nature of the series: Case Study 5: Patient A, high cholesterol, blood tests. It is filed as in vivo, human. The settings on record: patient-reported, earlier statin use. The method, then:
Patient A is a person who has had high cholesterol for approximately 20 years, and who is reasonably fit and is not overweight.
Patient A has been taking 100 mL of the composition of Example 1 each day for a period of 3 weeks. The results of a blood test on 14 Jan. 2015 (prior to taking the composition of Example 1) and a blood test on 24 Jun. 2015 (after taking the composition of Example 1 for 3 weeks) gave the results in Table 6: […]

For the molecule `CC(C)c1c(C(=O)Nc2ccccc2)c(-c2ccccc2)c(-c2ccc(F)cc2)n1CC[C@@H](O)C[C@@H](O)CC(=O)O` [Lipitor], the side effects result was “muscle aches and pain, tiredness, joint pain and a general feeling of not being well”.
